Measured values: PubChem BioAssay AID1259407 (Chemical Carcinogenesis Research Information System (CCRIS), 2018)
The source made the active and inactive calls. How the calls were made is not given here.

Test system: CCRIS mutagenicity, Ames/micronucleus/aberration tests
Experiment: CCRIS mutagenicity studies
Details: Test System: AMES SALMONELLA TYPHIMURIUM
[1] = Strain/Indicator: TA98, Metabolic Activation: NONE, Method: PREINCUBATION
[2] = Strain/Indicator: TA98, Metabolic Activation: NONE, Method: STANDARD PLATE
[3] = Strain/Indicator: TA100, Metabolic Activation: NONE, Method: STANDARD PLATE
[4] = Strain/Indicator: TA98, Metabolic Activation: RAT, LIVER, S-9, AROCLOR 1254, Method: STANDARD PLATE

## Cc1cccc(N)c1
Strain/Indicator: TA97, Metabolic Activation: HAMSTER, LIVER, S-9, AROCLOR 1254 (10 OR 30%), Method: PREINCUBATION
  mutagenic call: inactive; negative
Strain/Indicator: TA97, Metabolic Activation: NONE, Method: PREINCUBATION
  mutagenic call: inactive; negative
Strain/Indicator: TA97, Metabolic Activation: RAT, LIVER, S-9, AROCLOR 1254 (10 OR 30%), Method: PREINCUBATION
  mutagenic call: inactive; negative
Strain/Indicator: TA98, Metabolic Activation: HAMSTER, LIVER, S-9, AROCLOR 1254 (10 OR 30%), Method: PREINCUBATION
  mutagenic call: inactive; negative
[1]
  mutagenic call: inactive; negative
Strain/Indicator: TA98, Metabolic Activation: RAT, LIVER, S-9, AROCLOR 1254 (10 OR 30%), Method: PREINCUBATION
  mutagenic call: inactive; negative
Strain/Indicator: TA100, Metabolic Activation: HAMSTER, LIVER, S-9, AROCLOR 1254 (10 OR 30%), Method: PREINCUBATION
  mutagenic call: inactive; negative
Strain/Indicator: TA100, Metabolic Activation: NONE, Method: PREINCUBATION
  mutagenic call: inactive; negative
Strain/Indicator: TA100, Metabolic Activation: RAT, LIVER, S-9, AROCLOR 1254 (10 OR 30%), Method: PREINCUBATION
  mutagenic call: inactive; negative
Strain/Indicator: TA1535, Metabolic Activation: HAMSTER, LIVER, S-9, AROCLOR 1254 (10 OR 30%), Method: PREINCUBATION
  mutagenic call: inactive; negative
Strain/Indicator: TA1535, Metabolic Activation: NONE, Method: PREINCUBATION
  mutagenic call: inactive; negative
Strain/Indicator: TA1535, Metabolic Activation: RAT, LIVER, S-9, AROCLOR 1254 (10 OR 30%), Method: PREINCUBATION
  mutagenic call: inactive; negative
Strain/Indicator: TA1537, Metabolic Activation: HAMSTER, LIVER, S-9, AROCLOR 1254 (10 OR 30%), Method: PREINCUBATION
  mutagenic call: inactive; negative
Strain/Indicator: TA1537, Metabolic Activation: NONE, Method: PREINCUBATION
  mutagenic call: inactive; negative
Strain/Indicator: TA1537, Metabolic Activation: RAT, LIVER, S-9, AROCLOR 1254 (10 OR 30%), Method: PREINCUBATION
  mutagenic call: inactive; negative

## O=[N+]([O-])c1cc2[nH]c3ccc4ccccc4c3c2c2ccc(O)cc12
[2]
  mutagenic call: inactive; negative
Strain/Indicator: TA98, Metabolic Activation: RAT, LIVER, S-9, 3-METHYLCHOLANTHRENE, Method: STANDARD PLATE
  mutagenic call: active; positive
[3]
  mutagenic call: active; positive
Strain/Indicator: TA100, Metabolic Activation: RAT, LIVER, S-9, 3-METHYLCHOLANTHRENE, Method: STANDARD PLATE
  mutagenic call: active; positive

## CON(C)C(=O)Nc1ccc(Br)cc1
[2]
  mutagenic call: inactive; negative
[4]
  mutagenic call: inactive; negative
[3]
  mutagenic call: inactive; negative
Strain/Indicator: TA100, Metabolic Activation: RAT, LIVER, S-9, AROCLOR 1254, Method: STANDARD PLATE
  mutagenic call: inactive; negative

## CN(C)c1ccc(N=Nc2ccc(N(C)C)cc2)cc1
Strain/Indicator: TA98, Metabolic Activation: RAT, LIVER, S-9, POLYCHLORINATED BIPHENYLS, Method: PREINCUBATION
  mutagenic call: inactive; negative
Strain/Indicator: TA100, Metabolic Activation: RAT, LIVER, S-9, POLYCHLORINATED BIPHENYLS, Method: PREINCUBATION
  mutagenic call: inactive; negative

## CCN[C@@H](C)C[C@H](C)NCC.[Cl-].[Cl-].[Pt+2]
Strain/Indicator: TA97A, Metabolic Activation: NONE, Method: STANDARD PLATE
  mutagenic call: active; positive
[3]
  mutagenic call: active; positive

## Cc1ccc2nc3n(C)c4ccccc4c(C)c-3c2c1
Strain/Indicator: TA97, Metabolic Activation: RAT, LIVER, S-9, AROCLOR 1254, Method: STANDARD PLATE
  mutagenic call: active; positive
[4]
  mutagenic call: active; positive

## COC(=O)c1cc2c([nH]c3ccccc32)c(-c2ccc3c(n2)C(=O)C=CC3=O)n1
[3]
  mutagenic call: active; positive
Strain/Indicator: TA100, Metabolic Activation: RAT, LIVER, S-9, PCB, Method: STANDARD PLATE
  mutagenic call: active; positive

## Cc1cccc2c3c(c4cc5ccccc5cc4c12)N3
[1]
  mutagenic call: active; positive
